Assay results reported in patent US20170067909A1, “ASSAY-READY RECOMBINANT CELLS TRANSIENTLY OVEREXPRESSING GENES ENCODING DRUG TRANSPORTER PROTEINS AND/OR DRUG METABOLIZING ENZYMES” (Corning Incorporated, priority 2012, published 2017).
Like-named read-outs stand apart in the source and are kept apart here.

Tests used:
OATP1B1*1a = target: T1, OATP1B1*1a (Homo sapiens, UniProt Q9Y6L6); settings: read-out: Km, Literature Report; HEK293 cells; P. Sharma, et al. Xenobiotica 40:24. 2010; cited from earlier work
T1 sequence (Q9Y6L6 1-691): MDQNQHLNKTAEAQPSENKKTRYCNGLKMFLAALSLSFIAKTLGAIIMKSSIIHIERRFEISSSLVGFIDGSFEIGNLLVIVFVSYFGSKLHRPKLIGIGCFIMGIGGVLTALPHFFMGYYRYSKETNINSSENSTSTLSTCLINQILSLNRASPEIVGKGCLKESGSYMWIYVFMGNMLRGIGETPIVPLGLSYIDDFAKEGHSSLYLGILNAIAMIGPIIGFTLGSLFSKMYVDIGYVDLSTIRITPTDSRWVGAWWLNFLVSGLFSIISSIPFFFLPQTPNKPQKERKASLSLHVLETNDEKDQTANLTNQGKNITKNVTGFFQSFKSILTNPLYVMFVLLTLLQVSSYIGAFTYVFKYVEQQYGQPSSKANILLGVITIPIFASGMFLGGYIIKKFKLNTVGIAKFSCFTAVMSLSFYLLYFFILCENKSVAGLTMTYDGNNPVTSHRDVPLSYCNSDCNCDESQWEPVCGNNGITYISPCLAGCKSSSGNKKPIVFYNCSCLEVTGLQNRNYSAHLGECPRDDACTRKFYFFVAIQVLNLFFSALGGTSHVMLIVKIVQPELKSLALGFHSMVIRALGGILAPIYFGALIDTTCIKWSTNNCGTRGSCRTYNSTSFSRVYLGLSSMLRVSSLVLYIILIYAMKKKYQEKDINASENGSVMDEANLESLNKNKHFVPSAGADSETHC

rat Oatp1b2 = target: T2, rat Oatp1b2 (Rattus norvegicus, UniProt Q9QZX8)
T2 sequence (Q9QZX8 1-687): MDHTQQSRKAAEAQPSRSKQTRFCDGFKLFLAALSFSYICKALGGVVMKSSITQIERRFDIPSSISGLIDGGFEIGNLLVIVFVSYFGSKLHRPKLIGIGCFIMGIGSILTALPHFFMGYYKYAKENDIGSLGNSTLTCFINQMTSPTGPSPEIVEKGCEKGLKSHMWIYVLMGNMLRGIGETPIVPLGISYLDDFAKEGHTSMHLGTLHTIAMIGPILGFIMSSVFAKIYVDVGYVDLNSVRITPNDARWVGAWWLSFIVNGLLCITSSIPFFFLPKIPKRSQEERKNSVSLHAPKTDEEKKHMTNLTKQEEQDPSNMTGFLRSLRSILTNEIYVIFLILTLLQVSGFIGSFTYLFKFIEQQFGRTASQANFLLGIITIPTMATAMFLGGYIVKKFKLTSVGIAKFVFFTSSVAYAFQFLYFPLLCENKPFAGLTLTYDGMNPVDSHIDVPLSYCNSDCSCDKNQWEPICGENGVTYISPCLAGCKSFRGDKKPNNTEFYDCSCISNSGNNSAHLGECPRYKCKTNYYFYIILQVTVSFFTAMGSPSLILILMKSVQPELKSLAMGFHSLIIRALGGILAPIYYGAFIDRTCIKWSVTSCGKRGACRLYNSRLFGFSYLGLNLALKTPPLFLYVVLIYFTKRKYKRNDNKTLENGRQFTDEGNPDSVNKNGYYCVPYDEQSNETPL

OATP1B1 = target: T3, OATP1B1 (Homo sapiens, UniProt Q9Y6L6)
T3 sequence (Q9Y6L6 1-691): T1 sequence (Q9Y6L6 1-691)

[1] = target: T4, Organic Anion-Transporting Polypeptide 1B1 (Homo sapiens, UniProt Q9Y6L6); experiment: Positive control plated (adherent) assay, Corning TransportoCells OATP1B1*1a; assay type: in vitro ADME; settings: PC: Plated Assay, Seeded at 250k/well (24-well), assay at 48 hours; 5 uM FMTX, 10 min
T4 construct: host or cells: HEK293 cells, gene delivered by electroporation
T4 sequence (Q9Y6L6 1-691): T1 sequence (Q9Y6L6 1-691)
Text: A positive control was provided via an adherent assay for characterizing the activity of a drug transporter protein in cryopreserved, Corning® TransportoCells™. Corning® TransportoCells™ transiently transfected with the gene OATP1B1*1a were obtained from Corning Life Sciences (Cat. No. 354859). In order to obtain suitable expression of the Organic Anion-Transporting Polypeptide 1B1 encoded by OATP1B1*1a, the Corning® TransportoCells™ were thawed, cultured, and harvested. […] The cells were cultured via plating in a 24-well PDL-Treated Plate (cell density of 250K cells/well; obtained from Corning Life Sciences) with plating medium for 48 hours at 37° C. and 8% CO2. The plating medium is detailed in Table 16. After 24 hours, cells were refed by 400 uL plating media supplemented with 5 mM sodium butyrate (obtained from Sigma). After 48 hours, cells were washed three times using 0.4 mL prewarmed HBSS (Corning). Then 0.3 mL substrate solution containing 5 uM FMTX were added to the cells and the cells were incubated for 10 min at 37 degree. After 10 min incubation time, the cells were washed 3 times using 0.4 mL cold HBSS. The cells were lysed and subjected to the BCA protein analysis and/or fluorescence analysis to characterize the activity of Organic Anion-Transporting Polypeptide 1B1.

[2] = HEK-293 cells overexpressing the transporter

Molecule | Km (OATP1B1*1a) | uptake of substrate (in words) (monkey Oatp1b1; [2]) | Km (monkey Oatp1b1; incubation of 5 minutes, Michaelis-Menten kinetics) | Km (rat Oatp1b2) | uptake of substrate (in words) (rat Oatp1b2; [2]) | UPTAKE ACTIVITY pOATP1B1 (OATP1B1; 293-F cells, 0.2 × 10^6 cells/well, after thaw from cryopreservation) | UPTAKE ACTIVITY pOATP1B1 (OATP1B1; 293-F in CD293, cryo, 24 hr post plating, 0.4×10^6 cells/well) | UPTAKE ACTIVITY pOATP1B1 (OATP1B1; 293-F in CD293, cryo, 72 hr post plating, 0.4×10^6 cells/well) | UPTAKE ACTIVITY pOATP1B1 (OATP1B1; 293-F in CD293, fresh, 48 hr post plating, 0.4×10^6 cells/well) | UPTAKE ACTIVITY pOATP1B1 (OATP1B1; FS293 cells, 0.2 × 10^6 cells/well, after thaw from cryopreservation) | UPTAKE ACTIVITY pOATP1B1 (OATP1B1; FS293 in Excell, cryo, 24 hr post plating, 0.4×10^6 cells/well) | UPTAKE ACTIVITY pOATP1B1 (OATP1B1; FS293 in Excell, cryo, 48 hr post plating, 0.4×10^6 cells/well) | UPTAKE ACTIVITY pOATP1B1 (OATP1B1; FS293 in Excell, cryo, 72 hr post plating, 0.4×10^6 cells/well) | Uptake Activity (OATP1B1; recovery time prior to cryopreservation 24 HOURS) | Uptake Activity (OATP1B1; recovery time prior to cryopreservation 30 MIN) | Uptake Activity OATP1B1 [1] | Uptake Ratio [1]
C[C@]12CC[C@@H]3c4ccc(O)cc4CC[C@H]3[C@@H]1CC[C@@H]2O[C@@H]1O[C@H](C(=O)O)[C@@H](O)[C@H](O)[C@H]1O [E17βG] | 6.3 µM | significant uptake | 6.3 ± 1.4 µM | 9.6 ± 1.9 µM | significant uptake | 20.2 pmol/mg/min | 27.4 pmol/mg/min | 9.9 pmol/mg/min | 15.4 (85%) pmol/mg/min | 10.5 pmol/mg/min | 36.4 pmol/mg/min | 10.0 pmol/mg/min | 6.6 pmol/mg/min | 0.59 pmol/mg/min | 5.78 pmol/mg/min | – | –
fluorescein methotrexate [FMTX] | – | – | – | – | – | – | – | – | – | – | – | – | – | – | – | 1.06 pmol/mg/min | 30.6
